# Results reported in patent publication US20240101570A1 (AMGEN INC., priority 2020, published 2024).
# pIC50: −log10 of the molar value.
# Assays:
# [1] = tested on: HCT116 WT cells; experiment: HCT116 WT cell proliferation / viability (CellTiter-Glo, 6 days); type: cell-based; settings: Homo sapiens, HCT-116, 144 h, HCT116 WT cells, 6 days, CellTiter-Glo; read-out: HCT-116 WT IC50
# Summary of the method: (§1)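 CellTiter-Glo luminescence, 6-day exposure, RPMI 1640 + 10% FBS. Dosing: 1:3 series (8-9 pts, top 1 or 10 μM) or 1:2 series (22 pts, top 10 or 50 μM), DMSO control. IC50 = 50% of control via curve fit.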
# [2] = tested on: HCT116 MTAP null cells; experiment: HCT116 MTAP null cell proliferation / viability (CellTiter-Glo, 6 days); type: cell-based; settings: HCT116-MTAP null, 144 h, HCT116 MTAP null cells, 6 days, CellTiter-Glo; read-out: HCT-116 MTAP null IC50
# Summary of the method: as §1
pIC50 [1],pIC50 [2],Compound
5.14,6.34,"Nc1nc2ccc(C(=O)N(Cc3ccc(C(F)(F)F)cn3)CC(F)(F)F)cc2c2c1COC2 [Example 483, 4-amino-N-(2,2,2-trifluoroethyl)-N-((5-(trifluoromethyl)-2-pyridinyl)methyl)-1,3-dihydrofuro[3,4-c]quinoline-8-carboxamide]"
6.40,7.70,"CC(C)N(Cc1ccc(C(F)(F)F)cn1)C(=O)c1cc2c3c(c(N)nc2cc1Cl)COC3 [Example 484, 4-amino-7-chloro-N-(2-propanyl)-N-((5-(trifluoromethyl)-2-pyridinyl)methyl)-1,3-dihydrofuro[3,4-c]quinoline-8-carboxamide]"
4.49,6.44,"C[C@H]1OCc2c1c(N)nc1ccc(C(=O)N(C)Cc3ccc(C(F)(F)F)nn3)cc21 [Example 485, (3R)-4-amino-N,3-dimethyl-N-((6-(trifluoromethyl)-3-pyridazinyl)methyl)-1,3-dihydrofuro[3,4-c]quinoline-8-carboxamide]"
4.76,6.35,"Nc1nc2cnc(C(=O)N(Cc3ccc(C(F)(F)F)cn3)CC(F)(F)F)cc2c2c1COC2 [Example 486, 4-amino-N-(2,2,2-trifluoroethyl)-N-((5-(trifluoromethyl)-2-pyridinyl)methyl)-1,3-dihydrofuro[3,4-c][1,7]naphthyridine-8-carboxamide]"
5.28,6.56,"C[C@H]1OCc2c1c(N)nc1ccc(C(=O)N(Cc3ccc(C(F)(F)F)cn3)C3CCOCC3)cc21 [Example 489, (3R)-4-amino-3-methyl-N-(tetrahydro-2H-pyran-4-yl)-N-((5-(trifluoromethyl)-2-pyridinyl)methyl)-1,3-dihydrofuro[3,4-c]quinoline-8-carboxamide]"
5.46,7.06,"Nc1nc2cc(Cl)c(C(=O)N(Cc3ccc(C(F)(F)F)nn3)C3CC3)cc2c2c1COC2 [Example 490, 4-amino-7-chloro-N-cyclopropyl-N-((6-(trifluoromethyl)-3-pyridazinyl)methyl)-1,3-dihydrofuro[3,4-c]quinoline-8-carboxamide]"
6.21,7.32,"Cn1cc(N(Cc2ccc(C(F)(F)F)cn2)C(=O)c2cc3c4c(c(N)nc3cn2)CCC4)cn1 [Example 492, 6-amino-N-(1-methyl-1H-pyrazol-4-yl)-N-((5-(trifluoromethyl)-2-pyridinyl)methyl)-8,9-dihydro-7H-cyclopenta[c][1,7]naphthyridine-2-carboxamide]"
5.93,6.91,"Cn1cc(N(Cc2ccc(C(F)F)cn2)C(=O)c2cc3c4c(c(N)nc3cn2)CCC4)cn1 [Example 493, 6-amino-N-((5-(difluoromethyl)-2-pyridinyl)methyl)-N-(1-methyl-1H-pyrazol-4-yl)-8,9-dihydro-7H-cyclopenta[c][1,7]naphthyridine-2-carboxamide]"
5.04,6.55,"Cn1ncc2c3cc(C(=O)N(Cc4ccc(C(F)(F)F)cn4)C4(C)CC4)ccc3nc(N)c21 [Example 494, 4-amino-3-methyl-N-(1-methylcyclopropyl)-N-((5-(trifluoromethyl)-2-pyridinyl)methyl)-3H-pyrazolo[3,4-c]quinoline-8-carboxamide]"
5.20,7.10,"Cn1cc(N(Cc2ccc(C(F)(F)F)cn2)C(=O)c2ccc3nc(N)c4c(cnn4C)c3c2)cn1 [Example 495, 4-amino-3-methyl-N-(1-methyl-1H-pyrazol-4-yl)-N-((5-(trifluoromethyl)-2-pyridinyl)methyl)-3H-pyrazolo[3,4-c]quinoline-8-carboxamide]"
5.65,5.90,"CC(C)N(Cc1cnc(C(F)(F)F)cn1)C(=O)c1cc2c3c(c(N)nc2cc1F)COC3 [Example 496, 4-amino-7-fluoro-N-(2-propanyl)-N-((5-(trifluoromethyl)-2-pyrazinyl)methyl)-1,3-dihydrofuro[3,4-c]quinoline-8-carboxamide]"
5.45,6.60,"CCN(Cc1cnc(C(F)(F)F)cn1)C(=O)c1cc2c3c(c(N)nc2cc1F)COC3 [Example 497, 4-amino-N-ethyl-7-fluoro-N-((5-(trifluoromethyl)-2-pyrazinyl)methyl)-1,3-dihydrofuro[3,4-c]quinoline-8-carboxamide]"
4.90,6.58,"CCN(Cc1cnc(C(F)(F)F)cn1)C(=O)c1cc2c3c(c(N)nc2cc1Cl)COC3 [Example 498, 4-amino-7-chloro-N-ethyl-N-((5-(trifluoromethyl)-2-pyrazinyl)methyl)-1,3-dihydrofuro[3,4-c]quinoline-8-carboxamide]"
5.38,6.79,"CC(C)N(Cc1cnc(C(F)(F)F)cn1)C(=O)c1cc2c3c(c(N)nc2cc1Cl)COC3 [Example 499, 4-amino-7-chloro-N-(2-propanyl)-N-((5-(trifluoromethyl)-2-pyrazinyl)methyl)-1,3-dihydrofuro[3,4-c]quinoline-8-carboxamide]"
4.49,6.23,"CCN(Cc1cnc(C(F)(F)F)cn1)C(=O)c1ccc2nc(N)c3c(c2c1)CO[C@@H]3C [Example 500, (3R)-4-amino-N-ethyl-3-methyl-N-((5-(trifluoromethyl)-2-pyrazinyl)methyl)-1,3-dihydrofuro[3,4-c]quinoline-8-carboxamide]"
5.92,7.34,"Nc1nc2cc(F)c(C(=O)N(Cc3ccc(C(F)(F)F)nn3)C3CCC3)cc2c2c1COC2 [Example 501, 4-amino-N-cyclobutyl-7-fluoro-N-((6-(trifluoromethyl)-3-pyridazinyl)methyl)-1,3-dihydrofuro[3,4-c]quinoline-8-carboxamide]"
4.33,5.41,"COc1cc2nc(N)c3c(c2cc1C(=O)N(C)Cc1ccc(C(F)(F)F)cn1)COC3 [Example 502, 4-amino-7-methoxy-N-methyl-N-((5-(trifluoromethyl)-2-pyridinyl)methyl)-1,3-dihydrofuro[3,4-c]quinoline-8-carboxamide]"
5.70,7.25,"Cc1cc2nc(N)c3c(c2cc1C(=O)N(C)Cc1ccc(C(F)(F)F)cn1)COC3 [Example 503, 4-amino-N,7-dimethyl-N-((5-(trifluoromethyl)-2-pyridinyl)methyl)-1,3-dihydrofuro[3,4-c]quinoline-8-carboxamide]"
5.73,7.25,"Cn1ncc2c3cc(C(=O)N(Cc4ccc(C(F)(F)F)nn4)C4CCC4)c(F)cc3nc(N)c21 [Example 504, 4-amino-N-cyclobutyl-7-fluoro-3-methyl-N-((6-(trifluoromethyl)-3-pyridazinyl)methyl)-3H-pyrazolo[3,4-c]quinoline-8-carboxamide]"
6.18,7.66,"Nc1nc2cc(Cl)c(C(=O)N(Cc3ccc(C(F)(F)F)nn3)C3CCC3)cc2c2c1COC2 [Example 505, 4-amino-7-chloro-N-cyclobutyl-N-((6-(trifluoromethyl)-3-pyridazinyl)methyl)-1,3-dihydrofuro[3,4-c]quinoline-8-carboxamide]"
6.43,8.05,"Cn1cc(N(Cc2ccc(C(F)(F)F)cn2)C(=O)c2cc3c(cc2F)nc(N)c2c3cnn2C)cn1 [Example 506, 4-amino-7-fluoro-3-methyl-N-(1-methyl-1H-pyrazol-4-yl)-N-((5-(trifluoromethyl)-2-pyridinyl)methyl)-3H-pyrazolo[3,4-c]quinoline-8-carboxamide]"
6.43,7.60,"Cn1cc(N(Cc2ccc(C(F)(F)F)cn2)C(=O)c2cc3c(cn2)nc(N)c2cnn(C)c23)cn1 [Example 507, 4-amino-1-methyl-N-(1-methyl-1H-pyrazol-4-yl)-N-((5-(trifluoromethyl)-2-pyridinyl)methyl)-1H-pyrazolo[4,3-c][1,7]naphthyridine-8-carboxamide]"
5.55,7.22,"C[C@H](c1ccc(C(F)(F)F)cn1)N(C(=O)c1cc2c(cc1F)nc(N)c1c2cnn1C)C1CC1 [Example 508, 4-amino-N-cyclopropyl-7-fluoro-3-methyl-N-((1R)-1-(5-(trifluoromethyl)-2-pyridinyl)ethyl)-3H-pyrazolo[3,4-c]quinoline-8-carboxamide]"
6.06,7.40,"Nc1nc2cc(F)c(C(=O)N(Cc3ccc(OC(F)F)nn3)C3CCC3)cc2c2c1COC2 [Example 509, 4-amino-N-cyclobutyl-N-((6-(difluoromethoxy)-3-pyridazinyl)methyl)-7-fluoro-1,3-dihydrofuro[3,4-c]quinoline-8-carboxamide]"
5.58,7.19,"CN(Cc1ccc(S(F)(F)(F)(F)F)cc1)C(=O)c1ccc2nc(N)c3c(c2c1)COC3 [Example 510, 4-amino-N-methyl-N-(4-(pentafluoro-lambda~6~- sulfanyl)benzyl)-1,3-dihydrofuro[3,4-c]quinoline-8-carboxamide]"
5.31,6.91,"CN(Cc1ccc(S(F)(F)(F)(F)F)cc1)C(=O)c1cc2c3c(c(N)nc2cn1)COC3 [Example 511, 4-amino-N-methyl-N-(4-(pentafluoro-lambda~6~- sulfanyl)benzyl)-1,3-dihydrofuro[3,4-c][1,7]naphthyridine-8-carboxamide]"
5.86,7.42,"CN(Cc1ccc(S(F)(F)(F)(F)F)cc1)C(=O)c1cc2c3c(c(N)nc2cc1F)COC3 [Example 512, 4-amino-7-fluoro-N-methyl-N-(4-(pentafluoro-lambda~6~- sulfanyl)benzyl)-1,3-dihydrofuro[3,4-c]quinoline-8-carboxamide]"
6.07,7.72,"CN(Cc1ccc(S(F)(F)(F)(F)F)cc1)C(=O)c1cc2c3c(c(N)nc2cc1Cl)COC3 [Example 513, 4-amino-7-chloro-N-methyl-N-(4-(pentafluoro-lambda~6~- sulfanyl)benzyl)-1,3-dihydrofuro[3,4-c]quinoline-8-carboxamide]"
